Test results published in patent US20230044427A1, “EVAPORATION RETARDANT MEMBRANE FOR ODORANT COMPOSITIONS” (BASF SE, priority 2020, published 2023).

Tests used:
[1] = Evaporation cell test: weight loss of volatile compound through coated or uncoated paper; format: physicochemical; settings: 23° C., 50% humidity; for Weight loss of volatile compound through uncoated paper V2: uncoated paper V2, no coating
Experimental: The test was carried out according to the method described by Diehl, H. Pfeiffer, A.-M, Seyffer H., (2014), New testing method for functional barriers, International Paperworld IPW 8-11. All tests were carried out in a climate chamber at 23° C. and 50% humidity.
For this, circular specimens were cut from the paper coated with the respective coating. The specimen was placed in the holder of the evaporation cell. A defined amount of the respective volatile compound was filled into the chamber of the evaporation cell, and the chamber was closed by the holder and immediately weighed thereafter to an accuracy of 0.1 mg. The closed evaporation cell was reweighed after 1 h, 4 h, 1 d and 2 d.

[2] = vapor pressure at 25° C.; cited from earlier work
[3] = water / 1-octanol; cited from earlier work
[4] = paper 1, Polymer dispersion 1, thickness 10 g/m^2, coverage 50%
[5] = paper 1, Polymer dispersion 2, thickness 10 g/m^2, coverage 50%
[6] = paper 2, Polymer dispersion 1, thickness 15 g/m^2, coverage 30%
[7] = paper 2, Polymer dispersion 2, thickness 5 g/m^2, coverage 70%
[8] = paper V1, Polymer dispersion 1, thickness 10 g/m^2, coverage 100%
[9] = paper V1, Polymer dispersion 2, thickness 10 g/m^2, coverage 100%

| SMILES | Weight loss of volatile compound through respective coating of paper 1 [1, 4] | Weight loss of volatile compound through respective coating of paper 1 [1, 5] | Weight loss of volatile compound through respective coating of paper 2 [1, 6] | Weight loss of volatile compound through respective coating of paper 2 [1, 7] | Weight loss of volatile compound through respective coating of paper V1 [1, 8] | Weight loss of volatile compound through respective coating of paper V1 [1, 9] | Weight loss of volatile compound through uncoated paper V2 [1] | VP(25° C.) [2] | Log Pow [3] |
| --- | --- | --- | --- | --- | --- | --- | --- | --- | --- |
| C=C(C)[C@H]1CC=C(C)CC1 [Limonene] | 2 g/(m^2d) | 100 g/(m^2d) | 5 g/(m^2d) | 53 g/(m^2d) | 1 g/(m^2d) | 50 g/(m^2d) | 1750 g/(m^2d) | 2 mbar | 4.6 |
| CCCCCCC [n-Heptane] | 2 g/(m^2d) | 1200 g/(m^2d) | 5 g/(m^2d) | 603 g/(m^2d) | 1 g/(m^2d) | 600 g/(m^2d) | 4500 g/(m^2d) | 61 mbar | 4.8 |
| CCCCCC [n-Hexane] | 4 g/(m^2d) | 1900 g/(m^2d) | 10 g/(m^2d) | 953 g/(m^2d) | 2 g/(m^2d) | 950 g/(m^2d) | > 4000 g/(m^2d) | 201 mbar | 3.9 |

Second part, led by results:

| Weight loss of volatile compound through respective coating of paper 1 [1, 4] | Weight loss of volatile compound through respective coating of paper 1 [1, 5] | Weight loss of volatile compound through respective coating of paper 2 [1, 6] | Weight loss of volatile compound through respective coating of paper 2 [1, 7] | Weight loss of volatile compound through respective coating of paper V1 [1, 8] | Weight loss of volatile compound through respective coating of paper V1 [1, 9] | Weight loss of volatile compound through uncoated paper V2 [1] | SMILES | VP(25° C.) [2] | Log Pow [3] |
| --- | --- | --- | --- | --- | --- | --- | --- | --- | --- |
| 2 g/(m^2d) | 2 g/(m^2d) | 5 g/(m^2d) | 4 g/(m^2d) | 1 g/(m^2d) | 1 g/(m^2d) | 950 g/(m^2d) | CC(C)=CCCC(C)CC=O (stereo not drawn) [Citronellal] | 0.5 mbar | 3.8 |
| 1320 g/(m^2d) | 1300 g/(m^2d) | 3300 g/(m^2d) | 653 g/(m^2d) | 660 g/(m^2d) | 650 g/(m^2d) | 2450 g/(m^2d) | CCOC(C)=O [Ethyl acetate] | 7 mbar | 0.9 |
| 291 g/(m^2d) | 702 g/(m^2d) | 725 g/(m^2d) | 353 g/(m^2d) | 145 g/(m^2d) | 350 g/(m^2d) | 3750 g/(m^2d) | CCCCCC=O [Hexanal] | 15 mbar | 1.9 |
| 120 g/(m^2d) | 204 g/(m^2d) | 295 g/(m^2d) | 103 g/(m^2d) | 60 g/(m^2d) | 100 g/(m^2d) | 2100 g/(m^2d) | CC(=O)OCCC(C)C [Isoamyl acetate] | 5 mbar | 2.5 |
| 300 g/(m^2d) | 320 g/(m^2d) | 749 g/(m^2d) | 163 g/(m^2d) | 150 g/(m^2d) | 160 g/(m^2d) | 3500 g/(m^2d) | CC(=O)OCC(C)C [Isobutyl acetate] | 20 mbar | 1.8 |
